Data on 7 molecules can be found in patent publication US20240376070A1, “GPR52 MODULATOR COMPOUNDS” (NXERA PHARMA UK LIMITED, priority 2021, published 2024).

Each structure is given as a SMILES string. ≈ marks a conversion by molar mass, not a printed value.

Data set [1] in a line: Plasma concentration-time data after PO dose of Example 2 in Beagle dogs. The class given is in vivo. Conditions: dog, PO Example 2, all time points. On the procedure:
(§1) Systemic exposure of Example 2 and Intermediate 6 (Example 39 of Applicant's earlier application PCT/GB2021/050638 (WO2021/181122A1)) were assessed in male Sprague-Dawley rats and male Beagle dogs following oral (per os, PO) administration of Example 2. Plasma concentration-time data (mean values±standard deviation) are detailed in Tables 4 and 5.
(§2) Three male Sprague-Dawley rats (weighing 269-270 g) and three male Beagle dogs (weighing 7-10 kg), were administered a single dose of Example 2 via PO route, using the dose and vehicle specified in Table #. Following dosing, blood samples were taken at several time points (pre-dose, 5 min, 15 min, 30 min, 1 h, 2 h, 4 h, 8 h, 12 h and 24 h in both species, plus additional samples at 32 h and 48 h in dog) via serial bleeding of jugular vein (rat) or cephalic vein (dog), and centrifuged to separate plasma for quantitative bioanalysis of Example 2 and Intermediate 6 by LC-MS/MS.

Data set [2] can be described thus: Plasma concentration-time data after PO dose of Example 2 in Sprague-Dawley rats. The class given is in vivo. Conditions: rat, PO Example 2, all time points. On the procedure:
as §1, §2

Data set [3] can be described thus: Thermodynamic solubility in biorelevant media. Conditions: thermodynamic from solid. The class given is physicochemical. On the procedure: This experiment was designed to evaluate the thermodynamic solubility of Example 2 in various biorelevant media (Blank Fasted State Simulated Intestinal Fluid (FaSSIF) pH 6.5, FaSSIF pH 6.5 and simulated gastric fluid (SGF) without enzyme pH 1.2).
A 10 mM stock solution of Example 2 in dimethyl sulfoxide (DMSO) was prepared. From the 10 mM stock solution, a 1 mM intermediate solution of Example 2 in DMSO was prepared. A working solution of 1 μM of Example 2 was prepared by diluting the intermediate solution in mobile phase solution (methanol: 2 mM ammonium acetate containing suitable internal standard—carbamazepine). The working solution was serially diluted in mobile phase solution up to 8 linearity points to prepare standard solutions for plotting a calibration curve. The area for each standard solution was analyzed using LCMS/MS. The normalized area values were plotted vs. concentration to achieve a calibration equation.
Example 2 (1 mg) was added to 1 mL of each desired biorelevant media (SGF without enzyme pH 1.2, Blank FaSSIF pH 6.5 and FaSSIF pH 6.5) to achieve a theoretical concentration equivalent to 1 mg/mL.
The resulting solutions were then kept on RotoSpin (shaker) at 50 rpm for 4 hours at room temperature (25° C.). After the incubation period, the content was filtered through a 0.45 μm PVDF (hydrophilic) syringe filter and the filtrate was taken for quantification by LCMS/MS. The filtrate was diluted in mobile phase and subsequently, the area under the curve (AUC) was ascertained for diluted sample using LCMS/MS. From the AUC of test sample the corresponding concentration was calculated using 6 to 8 point linearity/calibration curve.

The next data set has as its target T1, human GPR52 (Homo sapiens, UniProt Q9Y2T5).
T1 construct: expressed in transfected cells; host or cells: HEKf suspension cells, BacMam (modified baculovirus) transduction
Kind of data set: GPR52 Agonist Functional cAMP Assay. The class given is cell-based. Conditions: HEKf cells infected with human GPR52 BacMam, cAMP HTRF, 30 min 37° C.; read-out: pEC50 average (converted). On the procedure:
HEKf suspension cells were infected for 24 h with 0.1% v/v human GPR52 expressing BacMam virus, a modified baculovirus designed for mammalian gene expression. Following BacMam infection, cells were pelleted by centrifugation (335 g, 5 min), resuspended in cell freezing medium (Sigma) and frozen at −150° C. until required. On experiment day, 25 nL GPR52 compound dilutions, prepared in DMSO, were stamped onto proxiplates (PerkinElmer) by a LabCyte ECHO acoustic dispenser. Frozen cells were thawed and resuspended in assay stimulation buffer (Cisbio) containing 0.5 mM 3-iso-butyl-1-methylxanthine (IBMX, Sigma) to achieve a density of 2000 cells per well. 10 μl cells were added to assay plates using a Multidrop Combi Reagent Dispenser (ThermoFisher) before centrifugation (1 min). Cells were incubated with compounds at 37° C. for 30 min prior to addition of cAMP detection reagents (HiRange cAMP kit, Cisbio) which were prepared according to the manufacturer's instructions. Plates were shaken for 1 h at room temperature before reading on a PHERAstar FS plate reader (BMG Labtech) using standard HTRF settings. HTRF ratios were obtained by dividing the acceptor emissions (665 nm) by the donor emissions (620 nm) and multiplying by 10,000. […] Further pharmacokinetic data for Intermediate 6 is provided in Applicant's earlier application PCT/GB2021/050638 (see Example 39).

Data set [4] has as its system caffeine-induced hyperlocomotor response. Kind of data set: Caffeine-induced locomotor activity in rat. The class given is in vivo, Sprague-Dawley rats. The note with it: rat, 0.1, 0.3, 1 and 3 mg/kg PO, 60 min before caffeine 15 mg/kg s.c., 2 h activity. From the text: Caffeine, a non-selective adenosine receptor antagonist, is a psychostimulant which increases rodent locomotor activity principally via blockade of A2A receptors (Br. J. Pharmacol., 2000, 129, 1465). These receptors are densely expressed on the terminals of GABAergic striatopallidal neurons in the indirect pathway of the basal ganglia, in which dopamine D2 receptors are co-expressed (J. Comp. Neurol., 1998, 401, 163; J. Comp. Neurol., 2001, 431, 331). Tonic activation of A2A receptors decreases the affinity of D2 receptors to dopamine and antagonism of A2A receptors facilitates dopaminergic signalling (Curr. Pharm. Des., 2008, 14, 1468). […] Male Sprague-Dawley rats (200-250 g) were housed in groups with a 12 h light/dark cycle (lights on at 07.00), at an ambient temperature of 21±2° C. and with standard pelleted diet and water ad libitum. Testing was carried out in the light phase. On the day of the experiment, animals were habituated to the locomotor cages for a 60-minute period. Subsequently, they were dosed with vehicle or Intermediate 6 (Example 39 of WO2021/181122A1) (0.1, 0.3, 1 and 3 mg/kg) by the oral route and returned to the appropriate locomotor cage. […] Locomotor activity was assessed for a 2 h period after caffeine treatment. […] SEMs were calculated from the residuals of the statistical model. […]

The nature of the next data set: Rat IV pharmacokinetics. The note with it: male, Sprague-Dawley, plasma, IV 1 mg/kg, n = 3. The class given is in vivo, Sprague-Dawley rats. On the procedure: The pharmacokinetic profiles of Intermediate 6 (Example 39 of WO2021/181122A1) were assessed in male Sprague-Dawley rats via intravenous (IV) delivery. Pharmacokinetic data (mean values±standard deviation) for Intermediate 6 (Example 39 of WO2021/181122A1) are detailed in Table 7.
For pharmacokinetic analysis, groups of three male Sprague-Dawley rats, ranging in weight between 200 and 230 g, were administered a single dose of Intermediate 6 (Example 39 of WO2021/181122A1) via IV, using the dose, dose volume and vehicle specified in Table 7. Following dosing, blood samples were taken at several time points (pre-dose, 2 min, 5 min, 15 min, 30 min, 1 h, 3 h, 6 h, 12 h and 24 h for IV) via serial tail vein bleeds, and centrifuged to separate plasma for analysis by LC-MS/MS. WinNonlin v8.2 statistics software (Pharsight Corporation, California, USA) was used to generate pharmacokinetic parameters using non-compartmental analysis.

Data set [5] in a line: Rat IV brain penetration (Kp,uu). Conditions: male, Sprague-Dawley, brain and plasma, IV 1 mg/kg, n = 3, unbound brain-to-plasma ratio. The class given is in vivo, Sprague-Dawley rats. On the procedure:
Plasma and brain exposure were evaluated to assess the brain penetration of Intermediate 6 (Example 39 of WO2021/181122A1), following IV administration. Unbound brain-to-plasma ratio (Kp,uu) was calculated, as detailed in Table 7, following experimental determination of binding in rat plasma and brain homogenate.
For brain penetration assessment, male Sprague-Dawley rats (n=3) were administered a single 1 mg/kg dose (formulated in 10% DMAC+10% Solutol HS15+80% saline) via the IV route. After 10 min post-dose, animals were sacrificed and brains extracted, homogenised with 2 volumes (w/v) of 50 mM sodium phosphate buffer (pH 7.4), and analysed by LC-MS/MS. Blood samples were removed at the same time point via tail vein bleed, centrifuged and the plasma analysed by LC-MS/MS.
To permit calculation of unbound brain-to-plasma ratio (Kp,uu), test compound binding in rat plasma and brain homogenate was performed, using Rapid Equilibrium Dialysis (RED). […]
After incubation, the contents of each plasma/brain and buffer compartment were removed and mixed with equal volumes of control dialysed buffer or plasma/brain to maintain matrix similarity for analysis. […] Fraction unbound (Fu) in plasma and brain was calculated using the following formula, then used to correct total plasma and brain concentrations to derive the Kp,uu:

T1 sequence (Q9Y2T5 whole entry): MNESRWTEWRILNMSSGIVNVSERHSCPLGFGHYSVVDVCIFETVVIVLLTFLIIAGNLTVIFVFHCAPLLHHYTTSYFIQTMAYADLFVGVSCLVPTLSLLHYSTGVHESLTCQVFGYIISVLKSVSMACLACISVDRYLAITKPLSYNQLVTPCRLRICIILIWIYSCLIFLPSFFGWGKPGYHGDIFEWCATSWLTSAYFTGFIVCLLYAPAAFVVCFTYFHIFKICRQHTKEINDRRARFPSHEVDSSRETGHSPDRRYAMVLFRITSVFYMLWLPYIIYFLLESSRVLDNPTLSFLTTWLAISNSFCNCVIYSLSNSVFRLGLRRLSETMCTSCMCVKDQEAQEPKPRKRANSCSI

In the case of `Cc1nn(-c2cc(Cc3cc(F)cc(C(F)(F)F)c3)ccn2)c(COP(=O)(O)O)c1C(N)=O` [Example 2], the “Plasma concentrations of Example 2” value in data set [1] and in data set [2] was less than 1 ng/mL throughout. Also, the solubility at 4 h in data set [3] (SGF without enzyme, simulated gastric fluid, SGF, pH 1.2, 25° C.) is 13.1 µM (≈ 6.38 µg/mL); in data set [3] (fassgf or other biorelevant, Blank FaSSIF, pH 6.5, 25° C.), 1890 µM (≈ 922 µg/mL); in data set [3] (FaSSIF, pH 6.5, 25° C.), 1830 µM (≈ 894 µg/mL).

As for `Cc1nn(-c2cc(Cc3cc(F)cc(C(F)(F)F)c3)ccn2)c(CO)c1C(=O)NCCO` [Intermediate 7, 1-(4-(3-fluoro-5-(trifluoromethyl)benzyl)pyridin-2-yl)-N-(2-hydroxyethyl)-5-(hydroxymethyl)-3-methyl-1H-pyrazole-4-carboxamide], the EC50 at human GPR52 is 2.51 nM.

On to `Cc1nn(-c2ccnc(Cc3cc(F)cc(C(F)(F)F)c3)c2)c(CO)c1C(=O)NCCO` [Intermediate 11, 1-(2-(3-fluoro-5-(trifluoromethyl)benzyl)pyridin-4-yl)-N-(2-hydroxyethyl)-5-(hydroxymethyl)-3-methyl-1H-pyrazole-4-carboxamide], for which, on human GPR52, the EC50 was 31.6 nM.

Take `Cc1nn(-c2ccnc(Cc3cc(F)cc(C(F)(F)F)c3)c2)c(CO)c1C(N)=O` [Intermediate 10, 1-(2-(3-fluoro-5-(trifluoromethyl)benzyl)pyridin-4-yl)-5-(hydroxymethyl)-3-methyl-1H-pyrazole-4-carboxamide]: at human GPR52, the EC50 was 31.6 nM.

As for `Cc1nn(-c2cc(Cc3cc(F)cc(C(F)(F)F)c3)ccn2)c(CO)c1C(N)=O` [Intermediate 6, 1-(4-(3-fluoro-5-(trifluoromethyl)benzyl)pyridin-2-yl)-5-(hydroxymethyl)-3-methyl-1H-pyrazole-4-carboxamide], the EC50 on human GPR52 was 6.31 nM. The “effect on caffeine-induced hyperlocomotor response” value in data set [4] was “dose-dependent reduction of the caffeine-induced hyperlocomotor response, reaching statistical significance at 1 and 3 mg/kg”. The molecule further displayed a clearance in the data set “Rat IV pharmacokinetics” of 8.8 ± 1.1 mL/min/kg. In addition, the Kp uu at 10 min in data set [5] is 0.42 ± 0.08.

Regarding `CNC(=O)c1c(C)nn(-c2cc(Cc3cc(F)cc(C(F)(F)F)c3)ccn2)c1CO` [Intermediate 12, 1-(4-(3-fluoro-5-(trifluoromethyl)benzyl)pyridin-2-yl)-5-(hydroxymethyl)-N,3-dimethyl-1H-pyrazole-4-carboxamide], the EC50 on human GPR52 was 10 nM.

Take `Cc1nn(-c2cc(Cc3cc(F)cc(C(F)F)c3)ccn2)c(CO)c1C(N)=O` [Intermediate 16, 1-(4-(3-(difluoromethyl)-5-fluorobenzyl)pyridin-2-yl)-5-(hydroxymethyl)-3-methyl-1H-pyrazole-4-carboxamide]: the EC50 at human GPR52 is 3.98 nM.
